Experimental data taken from paper PMC4794339 (Molecular and biochemical parasitology, 2016).
Where two headings read alike, the source gives them in different places.

How the values were obtained:
[1] = target: T1, T. cruzi glucokinase (TcGlcK) (Trypanosoma cruzi, UniProt Q4E4E1); format: biochemical; details: for LE (ligand efficiency): LE = −RTlnKi/N, N non-hydrogen atoms, TcGlcK inhibition; for TcGlcK selectivity ratio: Ki (HsHxKIV) / Ki (TcGlcK); for fold weaker TcGlcK inhibition compared to CBZ-GlcN: ratio of Ki values
[2] = tested on: T. cruzi (Tulahuen strain) intracellular amastigotes; assay: intracellular amastigote growth inhibition in NIH-3T3 fibroblasts; format: cell-based, Trypanosoma cruzi; details: for changes in the percent activity: at 50 μM, highest concentration tested
[3] = tested on: T. cruzi (Tulahuen strain) intracellular amastigotes; details: read-out: T. cruzi IC50, reported value, cited from earlier work
T. cruzi parasites = details: acute stage; cited from earlier work
[4] = target: T2, Homo sapiens hexokinase IV (HsHxKIV) (Homo sapiens, UniProt P35557); format: biochemical; details: read-out: KM for D-glucose, His6-HsHxKIV; truncated construct; 22 °C, pH 7.6
T2 sequence (P35557 12-457 limits assumed): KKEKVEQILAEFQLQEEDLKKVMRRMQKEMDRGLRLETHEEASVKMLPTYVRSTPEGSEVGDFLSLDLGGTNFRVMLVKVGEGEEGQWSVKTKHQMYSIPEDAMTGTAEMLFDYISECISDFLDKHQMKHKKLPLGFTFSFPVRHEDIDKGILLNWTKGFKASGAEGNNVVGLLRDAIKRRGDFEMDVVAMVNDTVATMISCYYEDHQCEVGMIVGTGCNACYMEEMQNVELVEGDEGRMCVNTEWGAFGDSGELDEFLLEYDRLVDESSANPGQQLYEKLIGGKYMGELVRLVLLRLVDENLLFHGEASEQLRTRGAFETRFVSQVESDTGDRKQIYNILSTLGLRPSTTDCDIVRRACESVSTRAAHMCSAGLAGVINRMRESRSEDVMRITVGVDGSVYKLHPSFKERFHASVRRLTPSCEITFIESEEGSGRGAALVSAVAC

[5] = target: T1, T. cruzi glucokinase (TcGlcK); details: read-out: KM for D-glucose, TcGlcK; room temperature, pH 8.5; cited from earlier work
[6] = tested on: T. cruzi hexokinase (TcHxK); details: read-out: KM for D-glucose catalysis, TcHxK; cited from earlier work
[7] = target: T2, Homo sapiens hexokinase IV (HsHxKIV); details: read-out: KM for D-glucose, non-His-tagged wt-HsHxKIV; cited from earlier work
TbHxK = details: read-out: Ki, TbHxK; cited from earlier work
[8] = ratio of amastigote IC50 values

Structure (SMILES): O=C(N[C@H]1C(O)O[C@H](CO)[C@@H](O)[C@@H]1O)c1ccccc1 (stereo partly drawn) [BENZ-GlcN, 2-benzamido-2-deoxy-D-glucopyranose]
- LE (ligand efficiency) [1]: 0.30 kcal/mol
- fold weaker inhibition effect compared to amphotericin B [2, 8]: 34 fold
- fold weaker inhibition effect compared to benznidazole [2, 8]: 14 fold

Structure (SMILES): O=C(Cn1ccnc1[N+](=O)[O-])NCc1ccccc1 [Benznidazole, N-Benzyl-2-nitro-1H-imidazole-1-acetamide]
- IC50 ([3]; ref 50): 1430 nM
- IC50 ([3]; ref 51): 1500 nM
- parasitological cures (T. cruzi parasites): ≤ 80%

Structure (SMILES): O=C(N[C@H]1C(O)O[C@H](CO)[C@@H](O)[C@@H]1O)OCc1ccccc1 (stereo partly drawn) [CBZ-GlcN, 2-N-carboxybenzyl-2-deoxy-D-glucosamine]
- TcGlcK selectivity ratio [1]: 245
- LE (ligand efficiency) [1]: 0.38 kcal/mol

Structure (SMILES): OC[C@H]1OC(O)[C@H](O)[C@@H](O)[C@@H]1O (stereo partly drawn) [D-glucose]
- Km [4]: 41800 ± 8700 µM
- Km ([1]; read-out: KM for D-glucose, His6-TcGlcK, room temperature (22 °C), pH 7.6): 948 ± 295 µM
- Km [5]: 1000 µM
- Km [6]: 60 µM
- Km [7]: 6000 µM

Structure (SMILES): O=C(N[C@H]1C(O)O[C@H](CO)[C@@H](O)[C@@H]1O)OCC1=Cc2ccccc2S1(=O)=O (stereo partly drawn) [DBT-GlcN, 2-[[1,1-dioxobenzo[b]thiophen-2-yl]methyloxocarbonylamino]-2-deoxy-D-glucosamine]
- LE (ligand efficiency) [1]: 0.27 kcal/mol
- fold weaker TcGlcK inhibition compared to CBZ-GlcN [1]: 6 fold
- changes in the percent activity [2]: not significant

Structure (SMILES): O=C(CCc1ccc(O)cc1)N[C@H]1C(O)O[C@H](CO)[C@@H](O)[C@@H]1O (stereo partly drawn) [HPOP-GlcN, 2-[[3-(4-hydroxyphenyl)-1-oxopropyl]amino]-2-deoxy-D-glucosamine]
- TcGlcK selectivity ratio [1]: 186
- LE (ligand efficiency) [1]: 0.35 kcal/mol
- fold weaker TcGlcK inhibition compared to CBZ-GlcN [1]: 1.8 fold
- changes in the percent activity [2]: not significant

Structure (SMILES): O=C(N[C@H]1C(O)O[C@H](CO)[C@@H](O)[C@@H]1O)c1cccc(Br)c1 (stereo partly drawn) [m-bromo-benzoyl glucosamine]
- Ki (TbHxK): 2800 nM
